What all share (assay type): cell-based
The test system of assay [1] is BT474 breast tumor cell line. Put plainly: BT474 assay (Alamar blue). Particulars: Homo sapiens, BT-474, 72 h. The method in brief:
(§1)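 For both lines, 5000 cells/well were exposed to compound or a 1% DMSO-medium control for 72 h unless otherwise specified. Signal was normalized to the DMSO control.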
(In general: Resazurin is reduced to fluorescent resorufin, in cell work by metabolically active cells.)

The next assay concerns HER3ss-Gluc. As to the kind of experiment: HER3ss assay. The note with it: HEK-293T T-rex cells, transient transfection, doxycycline, 24 h; read-out: HER3 ss IC50. The method in brief:
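HEK-293T T-REx cells were transiently transfected with HER3 signal sequence (plus four mature-domain residues) fused upstream of mature Gaussia luciferase. Cells were induced with doxycycline (1 μg/ml) and exposed to increasing compound concentrations for 24 h, then secreted luciferase in the conditioned medium was read by luminescence.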

In assay [2] the test system is VCAMss+10aa/Gaussia Luciferase. As to the kind of experiment: VCAM-ss-Gluc assay (constitutively active or Dox induced). The note with it: Flp-In 293 T-REx cells, 24 hours. The gist of the method: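 Stable cell lines secreting a VCAM signal sequence+10aa/Gaussia luciferase fusion, expressed either constitutively or under T-REx doxycycline control. Cells plated the day before; compound dilutions in DMSO/media (with doxycycline for the induced line) added and incubated at 37° C, 5% CO2.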

The test system of assay [3] is TNFα-FL/Gaussia Luciferase. As to the kind of experiment: Dox induced TNFα-FL-Gluc assay. Particulars: Flp-In 293 T-REx cells, doxycycline, 24 hours; read-out: TNFa FL Gluc IC50. The method in brief:
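Stable Flp-In 293 T-REx line expressing full-length TNFα (aa 1-233) fused at its C-terminus to Gaussia luciferase under doxycycline-inducible control. Cells plated the day before, then given compound dilutions in DMSO/media containing doxycycline and incubated at 37 °C, 5% CO2.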

Assay [4] relates to U266B1 multiple myeloma cell line. As to the kind of experiment: U266 assay (cell viability, Celltiter-Glo). Particulars: Homo sapiens, U-266; 48 hours, cell viability. On the procedure: Cells were plated in 384-well tissue culture plates and treated with compound dilutions in DMSO/media. Plates were incubated at 37° C., 5% CO2 for 48 hours. After 48 hours, Celltiter-Glo@ (Promega) was added to each well and luciferase signal was quantified using Tecan Infinite M1000 Pro for cell viability determination.

The subject of assay [5] is NCI-H929 multiple myeloma cell line. Put plainly: H929 assay (cell viability, Celltiter-Glo). Particulars: Homo sapiens, NCI-H929; 48 hours, cell viability; read-out: H929 EC50. The method in brief:
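Cells plated in RPMI 1640 with 10% FBS and 2 mM glutamine, treated with compound dilutions in DMSO/media. Incubation 48 h at 37° C, 5% CO2. Viability from luciferase luminescence signal.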
For orientation: Cellular ATP, detected with luciferase, serves as a proxy for viable cell number.

Assay [6] concerns JJN3 plasma cell leukemia cell line. Put plainly: JJN-3 assay (Alamar blue). The note with it: Homo sapiens, 72 h. The method in brief: as §1
Assay [7] has as its system Prl-ss+10aa/Gaussia Luciferase. Put plainly: Prl-ss-Gluc assay (constitutively active or 24 hr Dox inducible). The note with it: Flp-In 293 T-REx cells, 24 hours; read-out: Prl IC50. The method in brief:
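Stable Flp-In 293 T-REx lines express Prl signal sequence+10aa fused to Gaussia luciferase, either constitutively (pcDNA5/FRT) or under the T-REx promoter (pcDNA5/FRT/TO). Cells plated the day before; compounds in DMSO/media (with doxycycline for the inducible line, 24 h) incubated at 37 °C, 5% CO2.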

The test system of assay [8] is PD1-ss+10aa/Gaussia Luciferase. Put plainly: Dox induced PD1-ss-Gluc assay. The note with it: Flp-In 293 T-REx cells, doxycycline, 24 hours; read-out: PD1ss Gluc IC50. The method in brief:
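Stable Flp-In 293 T-REx line expressing doxycycline-inducible Gaussia luciferase fused to the PD1 signal sequence plus 10 amino acids. Cells plated the day before, then exposed to compound dilutions in DMSO/media containing doxycycline at 37 °C, 5% CO2.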

As usually defined, the EC50 is the concentration needed to bring the measured effect to its halfway point. As a reminder, the IC50 is the concentration that inhibits the measured activity by half.

Peptide text beside a SMILES is read from it.

In the case of `CC(C)C[C@@H]1NC(=O)[C@H](Cc2cn(Cc3ccc(F)cc3)c3ccccc23)N(C)C(=O)[C@H](CC(C)C)NC(=O)[C@H](CC(C)C)N(C)C(=O)[C@H](CC(C)C)NC(=O)[C@@H](CCC#N)OC(=O)[C@H](C)N(C)C1=O` [C-12] (HELM PEPTIDE1{L.[meA].[N#CCC[C@@H](O[*:1])C(=O)[*:2]].L.[meL].L.[CN([C@@H](Cc1cn(Cc2ccc(F)cc2)c2ccccc12)C(=O)[*:2])[*:1]]}$PEPTIDE1,PEPTIDE1,1:R1-7:R2$$$V2.0), the EC50 in [1] was 627 nM; in assay [4], 6960 nM; in [5] it was 740 nM; in assay [6], 71 nM. In addition, the IC50 with HER3ss-Gluc amounted to 31 nM; in [2], 230 nM; in assay [3] it was 44 nM; in assay [7] it was 1110 nM; in [8], 8 nM.
`COc1cc(Cn2cc(C[C@H]3C(=O)N[C@@H](CC(C)C)C(=O)N(C)[C@@H](C)C(=O)O[C@H](CCC#N)C(=O)N[C@@H](CC(C)C)C(=O)N(C)[C@@H](CC(C)C)C(=O)N[C@@H](CC(C)C)C(=O)N3C)c3ccccc32)ccc1F` [C-27] (HELM PEPTIDE1{L.[meA].[N#CCC[C@@H](O[*:1])C(=O)[*:2]].L.[meL].L.[COc1cc(Cn2cc(C[C@@H](C(=O)[*:2])N(C)[*:1])c3ccccc32)ccc1F]}$PEPTIDE1,PEPTIDE1,1:R1-7:R2$$$V2.0): the half-maximal effective concentration (EC50) in assay [1] stood at 2140 nM; in assay [4] it was 17300 nM; in assay [5], 1680 nM; in assay [6], 319 nM. Also, the IC50 came out at 101 nM in the assay on HER3ss-Gluc; 140 nM in assay [2]; 234 nM in assay [3]; 856 nM in [7]; 57 nM in assay [8].
Regarding `Cc1cc(Cn2cc(C[C@H]3C(=O)N[C@@H](CC(C)C)C(=O)N(C)[C@@H](C)C(=O)O[C@H](CCC#N)C(=O)N[C@@H](CC(C)C)C(=O)N(C)[C@@H](CC(C)C)C(=O)N[C@@H](CC(C)C)C(=O)N3C)c3ccccc32)no1` [C-15] (HELM PEPTIDE1{L.[meA].[N#CCC[C@@H](O[*:1])C(=O)[*:2]].L.[meL].L.[Cc1cc(Cn2cc(C[C@@H](C(=O)[*:2])N(C)[*:1])c3ccccc32)no1]}$PEPTIDE1,PEPTIDE1,1:R1-7:R2$$$V2.0), the EC50 came to 2620 nM in assay [1], 20200 nM in assay [4], 5930 nM in assay [5] and 4860 nM in [6]. Also, the 50% inhibitory concentration (IC50) with HER3ss-Gluc was found to be 284 nM; in assay [2], 4010 nM; in assay [3], 4700 nM; in assay [7], 6450 nM; in [8], 475 nM.

Values taken from US11339193B2, “CDP protein secretion inhibitors” (KEZAR LIFE SCIENCES, priority 2018, dated 2022).
